# Measurements: patent US20090082427A1, “Composition comprising wortmannin and its topical use for reducing human hair growth” (Reckitt Benckiser (UK) Limited, priority 2005, published 2009)
# Tests used:
# Type in all cases: cell-based, human
# dermal fibroblasts = assay: cell proliferation of dermal fibroblasts, cell number after 8 days; settings: wortmannin 70 μm in medium, CV (medium + DMSO vehicle) = 100
# Procedure: (§1) A study was carried out to assess the effects of wortmannin on cell proliferation for dermal fibroblasts, follicular dermal papilla fibroblasts derived from 5 normal adults (3 females and 2 males).
# (§2) A composition was prepared comprising wortmannin at 10 milli-molar in a vehicle of dimethyl sulfoxide (DMSO). The levels of wortmannin were such that when the composition was added to the growth medium in the experiments, the level of wortmannin in the experimental medium was 50, 70, 100 or 140 micro-molar and the respective level of DMSO was 0.5%, 0.7%, 1.0%, 1.4% by weight.
# (§3) The control experiments were carried out using as the growth medium CM (control medium only as detailed below) and CV (control medium containing the DMSO vehicle but free of wortmannin). The experiments using the wortmannin composition were carried out using the wortmannin compositions in the control medium.
# (§4) For experiments with dermal fibroblasts and follicular dermal papilla fibroblasts, Control Medium was RPMI 1640 media supplemented with penicillin/streptomycin, L-glutamine and Foetal Calf Serum.
# (§5) Results in terms of percentage cell number change after 8 days of the cells/follicles in the compositions were as follows in table 1.
# [1] = test system: follicular dermal papilla fibroblasts; assay: cell proliferation of follicular dermal papilla fibroblasts, cell number after 8 days; settings: wortmannin 70 μm in medium, CV = 100
# Procedure: as §1, §2, §3, §4, §5
# [2] = test system: hair follicle keratinocytes; assay: cell proliferation of hair follicle keratinocytes, cell number after 8 days; settings: CV = 100
# Procedure: A study carried out to assess the effects of wortmannin on cell proliferation for hair follicle keratinocytes was performed on cells from 1 normal healthy individual.
# as §2, §3
# For experiments with hair follicle keratinocytes, Control Medium was keratinocyte serum-free medium (KSF-M) medium supplemented with penicillin/streptomycin, L-glutamine, epidermal growth factor and bovine pituitary extract.
# as §5
# [3] = test system: Anagen (IV) intact hair follicles; assay: growth of isolated intact Anagen (IV) hair follicles, length increase after 8 days; settings: CM 26, CV 9
# Procedure: A study was carried out to assess the effects of wortmannin on growth of Anagen (IV) intact hair follicles isolated intact from 2 females.
# as §2, §3
# For experiments with intact hair follicle, Control Medium was Williams E medium supplemented with fungizone, penicilin/streptomycin, L-glutamine, insulin-like growth factor and hydrocortisone.
# as §5
smiles,measurement,setting,value
"COC[C@H]1OC(=O)c2coc3c2[C@@]1(C)C1=C(C3=O)[C@@H]2CCC(=O)[C@@]2(C)C[C@H]1OC(C)=O [wortmannin, 11-(acetyloxy)-1,6b,7,8,9a,10,11,11b-octahydro-1-(methoxymethyl)-9a,11b-di-methyl-[1S-(1α, 6bα,9aβ,11α, 11bβ)]-3H-furo[4,3,2-de]indeno[4,5-h]-2-benzopyran-3,6,9-trione]",Dermal fibroblasts percentage cell number (normalized on CV results),dermal fibroblasts,25%
same,dermal papilla fibroblasts percentage cell number (normalized on CV results),[1],34%
same,Hair follicle keratinocytes percentage cell number (normalized on CV results),[2]; wortmannin 50 μm in medium,75%
same,Hair follicle keratinocytes percentage cell number (normalized on CV results),[2]; wortmannin 70 μm in medium,40%
same,Hair follicle keratinocytes percentage cell number (normalized on CV results),[2]; wortmannin 100 μm in medium,30%
same,Whole hair follicles (length increase in %),[3]; wortmannin 70 μm in medium,4%
same,Whole hair follicles (length increase in %),[3]; wortmannin 140 μm in medium,4%
